In paper PMC9249808, “A novel lipidic peptide with potential to promote balanced effector-regulatory T cell responses” (Scientific Reports, 2022):

Legend:
[1] = tested on: CD8+ T cells within PBMC cultures; test: Intracellular IFN-γ in CD8+ T cells within PBMC cultures (flow cytometry); type: cell-based, human; settings: anti-CD3, 24 h, MFI, n = 4, Fig. 5d
Protocol: PBMCs were resuspended in RPMI-10 (RPMI-1640; ThermoFisher) supplemented with 10% heat inactivated Foetal Bovine Serum (LabTech), 100 U/mL penicillin, 100 µg/mL streptomycin (ThermoFisher), 2 mM L-glutamine (ThermoFisher), and 50 µM β-mercaptoethanol (ThermoFisher) at 1 × 10^6 cells/mL and plated at a density of 1 × 10^5 per well (100 µL) in 96-well, flat-bottom culture plates. PBMCs were stimulated with 1 µg/mL of soluble anti-CD3 (BioLegend). The lipidic peptide, IK14004, and IK14000, i.e., […] minus conjugation to [{2}Adod]4, were solubilised as a 1 mM stock solution in sterile milliQ water (Lonza) and added to wells at a final volume of 50 µL per well together with soluble anti-CD3 (1 µg/mL final, 50 µL per well) (Biolegend). To test the effect of peptides, cells were cultured for 24–72 h at 37 °C and 5% CO2. Vehicle controls in peptide-based experiments comprised 0.13% sterile milliQ water in culture medium whereas 0.1% DMSO in culture medium was used as vehicle control for comparison with the Lck inhibitor, A-770041, in the absence of peptides. […]

Lck-WT protein = test: Lck binding assay (non-cell-based ELISA); settings: peptide coated 10 µg/mL in PBS, 4 °C 20 h; Lck-WT (mCherry, c-myc tag) 2 h room temperature, HRP anti myc, 450 nm; duplicate experiments, 3 technical replicates; negative control PBS; Fig. 6b
Protocol: Lck wild-type (Lck-WT) was prepared in CHO cells. The plasmid for the expression of Lck-WT protein was kindly provided by the research laboratory of Professor Katarina Gaus. The plasmid was encoded for mammalian cell expression of the Lck-WT protein with a C-terminal mCherry reporter. A twin-strep tag was incorporated at the N-terminal of the Lck-WT for purification, and a c-myc epitope tag was placed at the C-terminal, after mCherry for detection of protein expression. A midiprep DNA preparation of the plasmid was performed using the Macherey–Nagel Midi kit as per manufacturer’s instructions. For transient transfections plasmid DNA was transfected into CHO-S cells using 2 μg DNA mL^−1 cells at a concentration of 3 million cells mL^−1. DNA was complexed with polyethylenimine-Pro (PolyPlus) in Opti-Pro serum free medium (Life Technologies) at a DNA (μg) to PEI (μL) ratio of 1:4 (w:v) for 15 min prior to transfecting suspension adapted CHO cells. […]
The peptides, IK14004 and IK14000, were reconstituted into PBS at 1 mg/mL. […] 100 µL of 2 M sulphuric acid was added to stop the reaction and the absorbance values recorded at a wavelength of 450 nm using SpectraMax (Molecular Devices).

c-Src = settings: cited from earlier work
Excerpt: Given the role of NFAT proteins in regulating transcription of IFN-γ[46],[47], suppression of NFAT attenuates IFN-γ-activated endogenous IL-12p40 mRNA expression. In addition, IFN-γ production in DCs is dependent on a Janus kinase (JAK) family member, Tyk2, that signals via signal transducers and activators of transcription (STATs)[49] and within DCs, c-Src contributes to c ... || Given the role of Lck in upstream signalling upon TCR activation[34],[35] which leads to IL-2 production[10],[11], we tested the effect of a known Lck inhibitor, A-770041 on IL-2 expression within supernatants from stimulated T cell cultures after 72 h.

With RSKAKNPLYR [IK14000] as the sequence, how does the “intracellular expression of IFN-γ in CD8+ T cells” value [1] read?
Its value is “unchanged”.

And the “binding to Lck” value (Lck-WT protein)?
The value was “no different to the negative control”.

What about the “c-Src activity, earlier report” value (c-Src) of the same sequence?
Its value is “inhibits c-Src activity”.
